Data on 19 molecules can be found in patent publication US7214699B2, “Indazole derivatives as CRF antagonists” (Roche Palo Alto LLC, priority 2002, dated 2007).

Structures can show the parent of a compound that is named as a salt.

One data set concerns the target T1, hCRF1 (Homo sapiens, UniProt P34998).
T1 construct: endogenous in cells; host or cells: Human Y-79 retinoblastoma cells
T1 sequence (P34998 24-415): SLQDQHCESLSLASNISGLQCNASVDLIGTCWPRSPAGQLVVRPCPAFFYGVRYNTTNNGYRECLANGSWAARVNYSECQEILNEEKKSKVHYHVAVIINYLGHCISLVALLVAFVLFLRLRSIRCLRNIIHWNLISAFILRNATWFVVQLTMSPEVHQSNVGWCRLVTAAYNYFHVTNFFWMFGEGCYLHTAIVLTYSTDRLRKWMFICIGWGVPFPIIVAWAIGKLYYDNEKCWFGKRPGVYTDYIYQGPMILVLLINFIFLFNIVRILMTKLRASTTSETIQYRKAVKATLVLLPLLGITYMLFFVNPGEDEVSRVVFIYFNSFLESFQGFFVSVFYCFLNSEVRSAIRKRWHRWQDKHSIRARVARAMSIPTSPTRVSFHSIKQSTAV
Put plainly: Intracellular cAMP stimulation assay (CRF1 functional assay). It counts as cell-based. The conditions noted are these: inhibition of hCRF (30 nM)-stimulated cAMP accumulation in human Y-79 retinoblastoma cells, read-out: hCRF1 pIC50 (converted). As to the method:
Intracellular cAMP Stimulation Assay
Human Y-79 retinoblastoma cells are grown in RPMI 1640 medium with 15% FBS. Measures of cAMP accumulation are performed by using NEN Adenylyl Cyclase FlashPlate kit (SMP004). The cells are separated from culture medium, washed twice with PBS (150×g, 8 min), resuspended (2E+6 cells/ml) in Stimulation Buffer (provided in the kit), and then added to 96-well FlashPlates, (50,000 cells per well). Various concentrations of test compounds are incubated with the cells for 20 min prior to the addition of hCRF (30 nM). The total assay volume is 100 μl. The assay is terminated after 20 min after addition of the hCRF by addition of Detection Buffer and [^125I]cAMP. After 2 hr at room temperature the mixtures are aspirated and the bound radioactivity is measured with a Packard TopCount. The potency (IC50 values) of test compounds in inhibiting the hCRF-stimulated accumulation of cAMP is determined by nonlinear regression analyses with interactive curve-fitting procedures.
The compounds of the present invention were active in receptor binding and functional assays.
(In general: Cyclic AMP is a second messenger, typically raised through Gs and lowered through Gi signalling.)

Take `CCCN(CCOC)c1c2cccc(-c3c(C)cc(C)cc3C)c2nn1C` (as salt: hydrochloride) [Ie, (2-Methoxy-ethyl)-[2-methyl-7-(2,4,6-trimethyl-phenyl)-2H-indazol-3-yl]-propyl-amine]: the melting point fell in the range of 86 to 121 °C.
Molecule `CC/C=C(\CCC)c1c2cccc(-c3ccc(OC)nc3C)c2nn1C.Cl` showed a melting point of 84.7 to 89.4 °C.
Regarding `CCC=C(CCC)c1c2cccc(-c3c(C)cc(C)cc3C)c2nn1C.Cl` [Ib, 2-Methyl-3-(1-propyl-but-1-enyl)-7-(2,4,6-trimethyl-phenyl)-2H-indazole hydrochloride], the melting point is 132 to 135 °C. The IC50 at hCRF1 is 50.1 nM.
Turning to `CCC=C(CCC)c1c2cccc(-c3ccc(Cl)cc3Cl)c2nn1C` [Ia, 7-(2,4-Dichloro-phenyl)-2-methyl-3-(1-propyl-but-1-enyl)-2H-indazole hydrochloride], the IC50 on hCRF1 was 63.1 nM.
For `Cn1nc2c(-c3ccc(Cl)cc3Cl)cccc2c1CN1CCOCC1` [Iag, 7-(2,4-Dichloro-phenyl)-2-methyl-3-morpholin-4-ylmethyl-2H-indazole], the melting point lay in the range of 152.3 to 154.8 °C.
`CCCN(CC1CC1)c1c2cccc(-c3ccc(Cl)cc3Cl)c2nn1C.Cl` had a melting point of 137 to 139 °C.
For `CCCN(CCC)c1c2cccc(-c3c(C)cc(C)cc3C)c2nn1C` (as salt: hydrochloride) [Ic, [2-Methyl-7-(2,4,6-trimethyl-phenyl)-2H-indazol-3-yl]-dipropyl-amine], the melting point lay in the range of 154 to 158 °C.
Same read-out and setting: to `CCCN(CCC)c1c2cccc(-c3ccc(Cl)cc3Cl)c2nn1C` (as salt: hydrochloride) [[7-(2,4-Dichloro-phenyl)-2-methyl-2H-indazol-3-yl]-dipropyl-amine] belongs 153 to 157 °C.
For `CCCN(CC1CC1)c1c2cccc(-c3c(C)cc(C)cc3C)c2nn1C` [Ip, Cyclopropylmethyl-[2-methyl-7-(2,4,6-trimethyl-phenyl)-2H-indazol-3-yl]-propyl-amine trifluoroacetic acid salt], on hCRF1, the IC50 is 50.1 nM.
Molecule `CCN(CCOC)c1c2cccc(-c3c(C)cc(C)cc3C)c2nn1C.Cl` came in with a melting point of 142 to 146 °C.
Same read-out and setting: then `Cn1nc2c(-c3ccc(Cl)cc3Cl)cccc2c1C(=O)N1CCOCC1` [Iae, [7-(2,4-Dichloro-phenyl)-2-methyl-2H-indazol-3-yl]-morpholin-4-yl-methanone], with 197 to 200.8 °C.
The same measure, in the same setting: to `COCCN(CCOC)c1c2cccc(-c3c(C)cc(C)cc3C)c2nn1C` (as salt: hydrochloride) [If, Bis-(2-methoxy-ethyl)-[2-methyl-7-(2,4,6-trimethyl-phenyl)-2H-indazol-3-yl]-amine] belongs 140 to 142 °C; to `CCCN(CCC)c1c2cccc(-c3ccc(OC)cc3OC)c2nn1C.Cl`, 62 to 64.3 °C.
Same read-out and setting: to `CCC=C(CCC)c1c2cccc(-c3ccc(Cl)cc3Cl)c2nn1C` (as salt: hydrochloride) [Ia, 7-(2,4-Dichloro-phenyl)-2-methyl-3-(1-propyl-but-1-enyl)-2H-indazole hydrochloride] belongs 147 to 152 °C.
The molecule `CCCN(CCC)c1c2cccc(-c3ccc(OC)cc3C)c2nn1C.Cl` came in with a melting point of 60 to 70 °C.
Turning to `CCCN(CC1CC1)C(=O)c1c2cccc(-c3c(C)cc(C)cc3C)c2nn1C` [Im, 2-Methyl-7-(2,4,6-trimethyl-phenyl)-2H-indazole-3-carboxylic acid cyclopropylmethyl-propyl-amide], the melting point lay in the range of 112.5 to 113.8 °C.
The same measure, in the same setting: then `CCCN(Cc1c2cccc(-c3c(C)cc(C)cc3C)c2nn1C)CC1CC1.Cl`, with 125.8 to 133.5 °C.
For the molecule `CCCN(CCC)c1c2cccc(-c3c(C)cc(C)cc3C)c2nn1C` [Ic, [2-Methyl-7-(2,4,6-trimethyl-phenyl)-2H-indazol-3-yl]-dipropyl-amine], the IC50 at hCRF1 was 79.4 nM.
On the same count and under the same terms, to `CCCN(Cc1cccs1)c1c2cccc(-c3c(C)cc(C)cc3C)c2nn1C` [Io, [2-Methyl-7-(2,4,6-trimethyl-phenyl)-2H-indazol-3-yl]-propyl-thiophen-2-ylmethyl-amine trifluoro-acetic acid salt] belongs 79.4 nM.

Broadly, the melting point is the temperature of the solid-liquid transition.
